Reference: patent US10568879B2 (GALAPAGOS NV, priority 2015, dated 2020)

Target: T1, GPR84 (Homo sapiens, UniProt Q9NQS5)
T1 construct: expressed in transfected cells
Experiment: GPR84 [35S]GTPγS binding assay
Type: biochemical
Settings: 3,3′-diindolylmethane at EC80; membranes from stable cell line over expressing GPR84
Method: The following assay can be used for determination of GPR84 activation. The [^35S]GTPγS binding assay measures the level of G protein activation following agonist occupation of a GPCR, by determining the binding of the non-hydrolysable analog [^35S]GTPγS to Gα subunits.
The assay is performed in a 96-well plate where the following reagents are added. First 50 μL compound is added into the assay plate, followed by addition of 20 μL 3,3′-diindolylmethane at EC80 concentration (concentration which gives 80% of the activity of GPR84). Then, 30 μL of a mixture consisting of membranes-GTPγS-SpA beads is added [mixture consists of 20 μg/well membranes derived from stable cell line over expressing GPR84 (membranes are pre-incubated with 0.1 μM GDP for 15 min at 4° C.), 0.1 nM [^35S]GTPγS (Perkin Elmer, NEG030) and 0.5 mg/well PVT-WGA SpA beads (Perkin Elmer, RPNQ0001)]. All components are diluted in assay buffer containing 20 mM Tris pH 7.5; 5 mM MgCl2; 250 mM NaCl; 0.05% BSA; 75 μg/mL saponin. After an incubation of 90 min at room temperature, 20 μL CsCl2 0.8 M (MP Biomedicals, 02150589) is added, followed by centrifugation at 2000 rpm during 20 min. Plates are read on a topcount reader (perkin elmer) immediately after centrifugation (readout time, 1 min/well).

T1 sequence (Q9NQS5 whole entry): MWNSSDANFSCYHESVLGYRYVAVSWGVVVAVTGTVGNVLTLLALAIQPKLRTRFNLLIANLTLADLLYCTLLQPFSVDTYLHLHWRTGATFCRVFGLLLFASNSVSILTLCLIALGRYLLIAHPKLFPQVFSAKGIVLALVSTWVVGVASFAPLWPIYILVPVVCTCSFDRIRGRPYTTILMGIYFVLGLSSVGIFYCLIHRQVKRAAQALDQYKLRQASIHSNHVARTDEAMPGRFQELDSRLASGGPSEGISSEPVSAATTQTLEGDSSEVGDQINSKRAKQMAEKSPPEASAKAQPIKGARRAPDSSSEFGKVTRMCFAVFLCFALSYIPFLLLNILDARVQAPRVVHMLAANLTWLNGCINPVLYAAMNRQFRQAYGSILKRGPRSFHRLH

Structure (SMILES) | IC50
Cc1c2n(c(OC[C@@H]3COCCO3)cc1=O)CCc1cc(N3CCC(Oc4cccnc4)CC3)ccc1-2 [Compound 121, 4-[[(2S)-1,4-dioxan-2-yl]methoxy]-1-methyl-9-[4-(3-pyridyloxy)-1-piperidyl]-6,7-dihydrobenzo[a]quinolizin-2-one] | 0.01 to 100 nM
Cc1c2n(c(OC[C@@H]3COCCO3)cc1=O)CCc1cc(N3CCC(C#N)CC3)ccc1-2 [Compound 122, 1-[4-[[(2)S-1,4-dioxan-2-yl]methoxy]-1-methyl-2-oxo-6,7-dihydrobenzo[a]quinolizin-9-yl]piperidine-4-carbonitrile] | 0.01 to 100 nM
Cc1c2n(c(OC[C@@H]3COCCO3)cc1=O)CCc1cc(N3CCCC(F)(F)C3)ccc1-2 [Compound 123, 9-(3,3-difluoro-1-piperidyl)-4-[[(2S)-1,4-dioxan-2-yl]methoxy]-1-methyl-6,7-dihydrobenzo[a]quinolizin-2-one] | 0.01 to 100 nM
Cc1c2n(c(OC[C@@H]3COCCO3)cc1=O)CCc1cc(C(C)C)ccc1-2 [Compound 124, 4-[[(2S)-1,4-dioxan-2-yl]methoxy]-9-isopropyl-1-methyl-6,7-dihydrobenzo[a]quinolizin-2-one] | 0.01 to 100 nM
[2H]c1c(OC[C@@H]2COCCO2)n2c(c(C)c1=O)-c1ccc(OCC(F)(F)F)cc1CC2 [Compound 125, 3-deuterio-4-[[(2S)-1,4-dioxan-2-yl]methoxy]-1-methyl-9-(2,2,2-trifluoroethoxy)-6,7-dihydrobenzo[a]quinolizin-2-one] | 0.01 to 100 nM
[2H]c1c(OC[C@@H]2COCCO2)n2c(c(C)c1=O)-c1ccc(OC([2H])([2H])C([2H])([2H])F)cc1CC2 [Compound 126, 3-deuterio-4-[[(2S)-1,4-dioxan-2-yl]methoxy]-1-methyl-9-(1,1,2,2-tetradeuterio-2-fluoro-ethoxy)-6,7-dihydrobenzo[a]quinolizin-2-one] | 0.01 to 100 nM
Cc1c2n(c(OC[C@@H]3COCCO3)cc1=O)CCc1cc(N(C)CCC(F)(F)F)ccc1-2 [Compound 129, 4-[[(2S)-1,4-dioxan-2-yl]methoxy]-1-methyl-9-[methyl(3,3,3-trifluoropropyl)amino]-6,7-dihydrobenzo[a]quinolizin-2-one] | 0.01 to 100 nM
Cc1c2n(c(OC[C@@H]3COCCO3)cc1=O)CCc1cc(N3CCCC3)ccc1-2 [Compound 130, 4-[[(2S)-1,4-dioxan-2-yl]methoxy]-1-methyl-9-pyrrolidin-1-yl-6,7-dihydrobenzo[a]quinolizin-2-one] | 0.01 to 100 nM
Cc1c2n(c(OC[C@@H]3COCCO3)cc1=O)CCc1cc(N3CCC(F)(F)C3)ccc1-2 [Compound 131, 9-(3,3-difluoropyrrolidin-1-yl)-4-[[(2S)-1,4-dioxan-2-yl]methoxy]-1-methyl-6,7-dihydrobenzo[a]quinolizin-2-one] | 0.01 to 100 nM
Cc1c2n(c(OC[C@@H]3COCCO3)cc1=O)CCc1cc(N3CC(C(F)(F)F)C3)ccc1-2 [Compound 132, 4-[[(2S)-1,4-dioxan-2-yl]methoxy]-1-methyl-9-[3-(trifluoromethyl)azetidin-1-yl]-6,7-dihydrobenzo[a]quinolizin-2-one] | 0.01 to 100 nM
Cc1c2n(c(OC[C@@H]3COCCO3)cc1=O)CCc1cc(N3CC=C(C(F)(F)F)CC3)ccc1-2 [Compound 133, 4-[[(2S)-1,4-dioxan-2-yl]methoxy]-1-methyl-9-[4-(trifluoromethyl)-3,6-dihydro-2H-pyridin-1-yl]-6,7-dihydrobenzo[a]quinolizin-2-one] | 0.01 to 100 nM
Cc1c2n(c(OC[C@@H]3COCCO3)cc1=O)CCc1cc(N3CCCC(F)C3)ccc1-2 (stereo partly drawn) [Compound 135, 4-[[(2S)-1,4-dioxan-2-yl]methoxy]-9-(3-fluoro-1-piperidyl)-1-methyl-6,7-dihydrobenzo[a]quinolizin-2-one] | 0.01 to 100 nM
Cc1c2n(c(OC[C@@H]3COCCO3)cc1=O)CCc1cc(-n3c4ccccc4c4ccccc43)ccc1-2 [Compound 136, 9-carbazol-9-yl-4-[[(2S)-1,4-dioxan-2-yl]methoxy]-1-methyl-6,7-dihydrobenzo[a]quinolizin-2-one] | 0.01 to 100 nM
Cc1c2n(c(OC[C@@H]3COCCO3)cc1=O)CCc1cc(N3CC(C)CC(C)C3)ccc1-2 (stereo partly drawn) [Compound 137, 9-(3,5-dimethyl-1-piperidyl)-4-[[(2S)-1,4-dioxan-2-yl]methoxy]-1-methyl-6,7-dihydrobenzo[a]quinolizin-2-one] | 0.01 to 100 nM
Cc1c2n(c(OC[C@@H]3COCCO3)cc1=O)CCc1cc(N3CCC(C)(C)C3)ccc1-2 [Compound 138, 9-(3,3-dimethylpyrrolidin-1-yl)-4-[[(2S)-1,4-dioxan-2-yl]methoxy]-1-methyl-6,7-dihydrobenzo[a]quinolizin-2-one] | 0.01 to 100 nM
Cc1c2n(c(OC[C@@H]3COCCO3)cc1=O)CCc1cc(N3CCC(C)(C)CC3)ccc1-2 [Compound 139, 9-(4,4-dimethyl-1-piperidyl)-4-[[(2S)-1,4-dioxan-2-yl]methoxy]-1-methyl-6,7-dihydrobenzo[a]quinolizin-2-one] | 0.01 to 100 nM
Cc1c2n(c(OC[C@@H]3COCCO3)cc1=O)CCc1cc(N3CCC(C(F)(F)F)CC3)ccc1-2 [Compound 140, 4-[[(2S)-1,4-dioxan-2-yl]methoxy]-1-methyl-9-[4-(trifluoromethyl)-1-piperidyl]-6,7-dihydrobenzo[a]quinolizin-2-one] | 0.01 to 100 nM
Cc1c2n(c(OC[C@@H]3COCCO3)cc1=O)CCc1cc(NCC(F)(F)F)ccc1-2 [Compound 142, 4-[[(2S)-1,4-dioxan-2-yl]methoxy]-1-methyl-9-(2,2,2-trifluoroethylamino)-6,7-dihydrobenzo[a]quinolizin-2-one] | 0.01 to 100 nM

More lines, now with the values ahead:

IC50 | Structure (SMILES)
100 to 500 nM | Cc1c2n(c(OC[C@@H]3COCCO3)cc1=O)CCc1cc(OC3CN(C(=O)C4CC4)C3)ccc1-2 [Compound 118, 9-[1-(cyclopropanecarbonyl)azetidin-3-yl]oxy-4-[[(2S)-1,4-dioxan-2-yl]methoxy]-1-methyl-6,7-dihydrobenzo[a]quinolizin-2-one]
100 to 500 nM | Cc1c2n(c(OC[C@@H]3COCCO3)cc1=O)CCc1cc(OC3CN(C(=O)C(F)(F)F)C3)ccc1-2 [Compound 119, 4-[[(2)S-1,4-dioxan-2-yl]methoxy]-1-methyl-9-[1-(2,2,2-trifluoroacetyl)azetidin-3-yl]oxy-6,7-dihydrobenzo[a]quinolizin-2-one]
0.01 to 100 nM | CCOC(=O)N1CC(Oc2ccc3c(c2)CCn2c(OC[C@@H]4COCCO4)cc(=O)c(C)c2-3)C1 [Compound 120, ethyl 3-[[4-[[(2S)-1,4-dioxan-2-yl]methoxy]-1-methyl-2-oxo-6,7-dihydrobenzo[a]quinolizin-9-yl]oxy]azetidine-1-carboxylate]
0.01 to 100 nM | Cc1c2n(c(OC[C@@H]3COCCO3)cc1=O)CCc1cc(OC3CCN(C(=O)OC(C)(C)C)C3)ccc1-2 (stereo partly drawn) [Compound 127, tert-butyl 3-[[4-[[(2S)-1,4-dioxan-2-yl]methoxy]-1-methyl-2-oxo-6,7-dihydrobenzo[a]quinolizin-9-yl]oxy]pyrrolidine-1-carboxylate]
0.01 to 100 nM | Cc1c2n(c(OC[C@@H]3COCCO3)cc1=O)CCc1cc(OC3CCN(C(=O)OC(C)(C)C)CC3)ccc1-2 [Compound 128, tert-butyl 4-[[4-[[(2S)-1,4-dioxan-2-yl]methoxy]-1-methyl-2-oxo-6,7-dihydrobenzo[a]quinolizin-9-yl]oxy]piperidine-1-carboxylate]
0.01 to 100 nM | Cc1c2n(c(OC[C@@H]3COCCO3)cc1=O)CCc1cc(N3CCC[C@H]3C)ccc1-2 [Compound 134, 4-[[(2S)-1,4-dioxan-2-yl]methoxy]-1-methyl-9-[(2R)-2-methylpyrrolidin-1-yl]-6,7-dihydrobenzo[a]quinolizin-2-one]
0.01 to 100 nM | Cc1c2n(c(OC[C@@H]3COCCO3)cc1=O)CCc1cc(N3CCC(C)CC3)ccc1-2 [Compound 141, 4-[[(2S)-1,4-dioxan-2-yl]methoxy]-1-methyl-9-(4-methyl-1-piperidyl)-6,7-dihydrobenzo[a]quinolizin-2-one]
0.01 to 100 nM | Cc1c2n(c(OC[C@@H]3COCCO3)cc1=O)CCc1cc(N3CCCCC3C)ccc1-2 (stereo partly drawn) [Compound 143, 4-[[(2S)-1,4-dioxan-2-yl]methoxy]-1-methyl-9-(2-methyl-1-piperidyl)-6,7-dihydrobenzo[a]quinolizin-2-one]
100 to 500 nM | Cc1c2n(c(OC[C@@H]3COCCO3)cc1=O)CCc1cc(OC3CCN(C(=O)C4CC4)C3)ccc1-2 (stereo partly drawn) [Compound 144, 9-[1-(cyclopropanecarbonyl)pyrrolidin-3-yl]oxy-4-[[(2S)-1,4-dioxan-2-yl]methoxy]-1-methyl-6,7-dihydrobenzo[a]quinolizin-2-one]
0.01 to 100 nM | CCOC(=O)N1CCC(Oc2ccc3c(c2)CCn2c(OC[C@@H]4COCCO4)cc(=O)c(C)c2-3)C1 (stereo partly drawn) [Compound 145, ethyl 3-[[4-[[(2S)-1,4-dioxan-2-yl]methoxy]-1-methyl-2-oxo-6,7-dihydrobenzo[a]quinolizin-9-yl]oxy]pyrrolidine-1-carboxylate]
500 to 1000 nM | Cc1c2n(c(OC[C@@H]3COCCO3)cc1=O)CCc1cc(C3CN(C(=O)C4CC4)C3)ccc1-2 [Compound 146, 9-[1-(cyclopropanecarbonyl)azetidin-3-yl]-4-[[(2S)-1,4-dioxan-2-yl]methoxy]-1-methyl-6,7-dihydrobenzo[a]quinolizin-2-one]
